The results in this text go back to ChEMBL document CHEMBL4364353, “Lysophosphatidic Acid Receptor 1 Antagonists for the Treatment of Fibrosis” (ACS Med Chem Lett, 2019).

The target in this assay is Lysophosphatidic acid receptor 1 (Homo sapiens, UniProt Q92633). Briefly: Antagonist activity at human LPA1 expressed in CHO cells assessed as reduction in LPA-induced calcium influx incubated for 20 mins. The assay is classed as functional, cell-based.
Chain of Lysophosphatidic acid receptor 1 (Q92633 whole entry): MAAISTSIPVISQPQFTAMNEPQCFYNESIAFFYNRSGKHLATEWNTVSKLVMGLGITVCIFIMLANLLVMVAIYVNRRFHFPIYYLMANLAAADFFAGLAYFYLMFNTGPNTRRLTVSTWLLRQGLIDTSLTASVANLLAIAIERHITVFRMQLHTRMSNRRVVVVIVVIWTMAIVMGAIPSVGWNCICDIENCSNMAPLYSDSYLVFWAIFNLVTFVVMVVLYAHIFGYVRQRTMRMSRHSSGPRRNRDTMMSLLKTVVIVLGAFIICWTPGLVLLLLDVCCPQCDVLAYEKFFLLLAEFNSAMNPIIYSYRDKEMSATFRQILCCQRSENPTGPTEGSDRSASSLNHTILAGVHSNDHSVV

Broadly, the IC50 is the point on the concentration scale where inhibition reaches its midpoint. For the compound `Cc1noc(-c2ccc(O[C@H]3CCC[C@H](C(=O)O)C3)cc2)c1CNC(=O)OCc1ccc(Cl)cc1`, the IC50 worked out at 227 nM.
